In assay [1] the target is T1, 5-Lipoxygenase (Rattus norvegicus, UniProt P12527).
T1 construct: endogenous in cells; host or cells: rat neutrophils (PMN)
T1 sequence (P12527 1-673): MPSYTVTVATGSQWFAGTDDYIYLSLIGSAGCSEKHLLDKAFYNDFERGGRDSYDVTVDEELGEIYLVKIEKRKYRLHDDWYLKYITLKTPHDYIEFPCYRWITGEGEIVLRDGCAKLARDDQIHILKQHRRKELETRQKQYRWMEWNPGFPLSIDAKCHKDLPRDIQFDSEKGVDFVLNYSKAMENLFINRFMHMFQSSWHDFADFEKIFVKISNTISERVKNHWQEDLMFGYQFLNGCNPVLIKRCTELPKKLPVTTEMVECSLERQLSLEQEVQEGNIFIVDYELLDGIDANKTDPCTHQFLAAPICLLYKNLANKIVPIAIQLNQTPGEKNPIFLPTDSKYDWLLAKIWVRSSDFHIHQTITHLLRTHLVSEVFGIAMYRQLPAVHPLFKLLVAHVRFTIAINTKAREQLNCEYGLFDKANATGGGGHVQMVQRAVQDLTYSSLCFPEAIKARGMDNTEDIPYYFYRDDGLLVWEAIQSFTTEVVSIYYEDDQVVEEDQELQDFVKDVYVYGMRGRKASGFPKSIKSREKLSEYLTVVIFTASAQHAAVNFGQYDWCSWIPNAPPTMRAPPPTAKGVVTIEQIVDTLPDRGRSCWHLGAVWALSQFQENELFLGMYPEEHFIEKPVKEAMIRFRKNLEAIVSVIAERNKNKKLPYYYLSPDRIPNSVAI
In words: Inhibition of 5-Lipoxygenase, rat PMN (Protocol 1). It counts as cell-based. The settings on record: rat neutrophils, 3 minutes at 30° C., 5-HETE formation; for IC50: [14C]-arachidonic acid and Calcium Ionophore A23187, read-out: Lox, Rat PMN (I50); for Inhibition of 5-Lipoxygenase, Lox, Rat PMN (given as %): concentration not given. On the procedure: Protocol 1 describes an assay to detect inhibitors of the lipoxygenase pathway. Such inhibitors are believed to be capable of modulating the biosynthesis of the leukotrienes, a property believed to be useful in treating asthma and inflammatory disease states. A suspension of rat neutrophils in buffer is incubated for 3 minutes at 30° C. with [^14 C]-arachidonic acid (AA) and Calcium Ionophore A23187. Citric acid (2M) is used to quench the reaction. […] The organic layer is washed with dilute acid and an aliquot is transferred to glass tubes and dried. […] The 5-HETE spots are visulaized with iodine, cut out and placed in scintillation vials for counting. After adjusting for the extraction efficiency, the amount (pmole) of [^14 C]-5-HETE in each of the tubes is quantitated. The net pmoles of 5-HETE are obtained by subtracting the pmoles of 5-HETE in the tubes containing buffer alone (blank) from the pmoles of 5-HETE in the tubes containing buffer and cells (control).

In assay [2] the target is T2, Phospholipase A2 (PLA2) (Rattus norvegicus, UniProt P14423).
T2 construct: The PLA2 employed in this screen is obtained by aggregation of purified rat platelets; from tissue; host or cells: purified rat platelets, enzyme obtained by aggregation
T2 sequence (P14423 22-146): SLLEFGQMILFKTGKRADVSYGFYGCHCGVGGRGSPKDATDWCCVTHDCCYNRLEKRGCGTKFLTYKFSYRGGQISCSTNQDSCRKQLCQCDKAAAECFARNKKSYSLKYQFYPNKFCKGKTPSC
The assay can be described thus: In Vitro Assay for Inhibitors of Phospholipase A2 (PLA2), rat platelets (Protocol II). It counts as biochemical. From the text: An assay has been developed to test the ability of the invented compounds on the activity of the phospholipases. The following protocol describes a means for testing the inhibitory effect of these compounds on Phospholipase A2 (PLA2).
In Vitro Assay for Inhibitors of Phospholipase A2 Assayed at pH 7.0 (PLA2)
The PLA2 employed in this screen is obtained by aggregation of purified rat platelets. In the enzyme assay phosphatidylcholine having ^14 C-labeled palmitate residues at R1 and R2 is employed as substrate. PLA2 acts by cleaving the R2 fatty acid ester bond yielding free fatty acid and lysophosphatidylcholine as follows: [drawing 15]
Following completion of the reaction, the assay medium is acidified and extracted with hexane, which takes up unreacted substrate and free fatty acid product. The hexane extract is passed over a short silica column which retains 99% of the phosphatidylcholine. The ^14 C-labeled palmitic acid is not retained (90% recovery in eluate) and is collected directly in scintillation counting vials. The released palmitic acid is conveniently quantitated by liquid scintillation spectrometry.
The compounds were tested at 100 μM in a buffer containing 0.3 mM unlabeled phosphatidylcholine (PC), 20-30,000 cpm of ^14 C(CPC), […], 1 mM CaCl2 and 50 mM tris-HCl adjusted to pH 7.2 with 1N NaOH. […] The temperature of the buffer was maintained at a temperature of 37° C. The reaction was initiated by addition of the enzyme and it was terminated 30 minutes later by the addition of […] of 1N HCl.
Following acidification, the samples were extracted with 2 ml of 2-propanol and 2 ml of hexane, vortexed and allowed to stand until the phases separated. Free fatty acids (FFA) and some unreacted substrate were taken up in the isopropanol-saturated hexane. The hexane phase of the extraction mixture was transferred to a short silica gell column which retained reacted PC but not the FFA. The column effluent was collected directly in scintillation vials. The columns were washed once with an additional 2 ml of hexane. The radio labeled FFA were quantitated by liquid scintillation spectrometry.

The mark [3] stands for this setting: rat platelets PLA2, phosphatidylcholine substrate, pH 7.2, 37° C., 30 minutes, read-out: PHOSPHOLIPASE A2 INHIBITION Activity (I50).

Each structure is given as a SMILES string. Like-named read-outs stand apart in the source and are kept apart here.

In the case of `CC(=O)Nc1ccc(SC(=O)/C=C(C)/C=C/C=C(C)/C=C/C2=C(C)CCCC2(C)C)cc1` [Example 3, Retinoic Acid 4-Acetamidophenyl Thioester], the IC50 in assay [1] turned out to be 2.3 µM; in assay [2] (setting [3]), 34 µM.

`CC(=O)Nc1cccc(OC(=O)/C=C(C)/C=C/C=C(C)/C=C/C2=C(C)CCCC2(C)C)c1` [Example 2, 3-Acetamidophenyl Retinoate]: the IC50 in assay [1] is 55 µM; in assay [2] (setting [3]), 48 µM.

Take `CC(=O)Nc1ccc(OC(=O)/C=C(C)/C=C/C=C(C)/C=C/C2=C(C)CCCC2(C)C)cc1` [Example 1, 4-Acetamidophenyl Retinoate]: the IC50 in assay [1] and in assay [2] (setting [3]) was 56 µM throughout.

In assay [2], `CC(=O)Nc1ccc(OC(=O)/C=C/C=C(C)/C=C/C=C(C)/C=C/C2=C(C)CCCC2(C)C)cc1` [Example 4, 4-Acetamidophenyl 5,9-dimethyl-11-(2,6,6-trimethyl-1-cyclohexen-1-yl)-2,4,6,8,10-undecapentaenoate] gave an IC50 of 17 µM.

Consider `CCNC(=O)/C=C(C)/C=C/C=C(C)/C=C/c1c(C)cc(OC)c(C)c1C` [Ro 11 - 1430, reference compound], for which the “Inhibition of 5-Lipoxygenase, Lox, Rat PMN (given as %)” value in assay [1] is recorded as -11 ± 19%.

For the compound `CCOC(=O)/C=C(C)/C=C/C=C(C)/C=C/c1c(C)cc(OC)c(C)c1C` [Ro 10 - 9359, reference compound], the “Inhibition of 5-Lipoxygenase, Lox, Rat PMN (given as %)” value in assay [1] was found to be 10 ± 17%.

One may read the inhibition as the relative decrease from the control value, in per cent. `CC1=C(/C=C/C(C)=C/C=C/C(C)=C/C(=O)O)C(C)(C)CCC1` [all trans retinoic acid, reference compound]: in assay [1], the IC50 stood at 90 µM. In assay [2] (at 100 μM, rat platelets PLA2, pH 7.2, 37° C., 30 minutes), the inhibition at 100 µM was 32%.

Values taken from patent US4595696A, “Polyene compounds useful in the treatment of allergic responses” (USV Pharmaceutical Corp., priority 1985, dated 1986).
